Molecules are shown by their SMILES. Counter-ions that a name gives are not always drawn.

The term IC50 denotes the midpoint of a concentration-inhibition curve.

For one test, the target named is T1, recombinant human MMP-13 (Homo sapiens, UniProt P45452).
T1 construct: made in house
Nature of the test: In vitro metalloprotease inhibition, fluorogenic peptide assay (MMP-13). It is filed as biochemical. Conditions: recombinant human MMP-13, APMA activated; fluorogenic MCA peptide substrate 4 uM; pH 7.5, room temperature. The procedure:
(§1) Certain of the compounds prepared in the manner described in Examples 1 to 223 were tested for activity by an in vitro assay. Following the procedures of Knight et al., FEBS Lett. 296(3):263 (1992). Briefly, 4-aminophenylmercuric acetate (APMA) or trypsin activated MMPs were incubated with various concentrations of the inhibitor compound at room temperature for 5 minutes (0.02% 2-mercapto-ethanol added to buffer for thiol compounds with 5 minutes or overnight incubation). More specifically, recombinant human MMP-13 and MMP-1 enzymes were prepared in laboratories of the inventors' employer. MMP-13 was expressed in baculovirus as a proenzyme, and purified first over a heparin agarose column and then over a chelating zinc chloride column. The proenzyme was activated by APMA for use in the assay. MMP-1 expressed in transfected HT-1080 was provided by Dr. Howard Welgus of Washington University, St. Louis, Mo. The enzyme was also activated using APMA and was then purified over a hydroxamic acid column.
(§2) The enzyme substrate is a methoxycoumarin-containing polypeptide having the following sequence:
(§3) MCA-ProLeuGlyLeuDpaAlaArgNH^2, wherein MCA is methoxycoumarin and Dpa is 3-(2,4-dinitrophenyl)-L-2,3-diaminopropionyl alanine. This substrate is commercially available from Baychem as product M-1895.
(§4) The buffer used for assays contained 100 mM Tris-HCl, 100 mM NaCl, 10 mM CaCl2 and 0.05 percent polyethyleneglycol(23) lauryl ether at a pH value of 7.5. Assays were carried out at room temperature, and dimethyl sulfoxide (DMSO) at a final concentration of 1 percent was used to dissolve inhibitor compound.
(§5) The assayed inhibitor compound in DMSO/buffer solution was compared to an equal amount of DMSO/buffer with no inhibitor as control using microfluor™ white plates (Dynatech). The inhibitor or control solution was maintained in the plate for 10 minutes and the substrate was added to provide a final concentration of 4 uM.
(§6) In the absence of inhibitor activity, a fluorogenic peptide is cleaved at the gly-leu peptide bond, separating the highly fluorogenic peptide from a 2.4-dinitrophenyl quencher, resulting in an increase of fluorescence intensity (excitation at 328 nm/emmision at 415 nm). Inhibition was measured as a reduction in fluorescent intensity as a function of inhibitor concentration, using a Perkin Elmer L550 plate reader. The IC50 values were calculated from those values. The results are set forth in the Inhibition Table below, reported in terms of IC50 to three significant figures.

A further test deals with T2, recombinant human MMP-1 (Homo sapiens, UniProt P03956).
T2 construct: made in house; host or cells: transfected HT-1080 cells (provided by Dr. Howard Welgus, Washington University)
T2 sequence (P03956 100-469): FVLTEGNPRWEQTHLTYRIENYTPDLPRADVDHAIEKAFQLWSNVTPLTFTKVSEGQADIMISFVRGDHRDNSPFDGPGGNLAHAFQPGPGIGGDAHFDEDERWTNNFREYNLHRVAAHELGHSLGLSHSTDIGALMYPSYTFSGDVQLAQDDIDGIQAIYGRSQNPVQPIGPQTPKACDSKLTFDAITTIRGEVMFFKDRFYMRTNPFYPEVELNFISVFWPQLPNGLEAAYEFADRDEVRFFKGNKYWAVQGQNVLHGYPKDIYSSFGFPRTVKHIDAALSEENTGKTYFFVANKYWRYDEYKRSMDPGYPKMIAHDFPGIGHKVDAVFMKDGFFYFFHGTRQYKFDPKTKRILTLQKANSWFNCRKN
Briefly: In vitro metalloprotease inhibition, fluorogenic peptide assay (MMP-1). The format is biochemical. Conditions: recombinant human MMP-1, APMA activated; fluorogenic MCA peptide substrate 4 uM; pH 7.5, room temperature. The procedure:
as §1, §2, §3, §4, §5, §6

Take `CCCCCc1ccc(S(=O)(=O)N(C)[C@H](C)CS)cc1` [Example 53, N-(2-Mercapto-1R-methylethyl)-N-methyl-4-(n-pentyl)benzenesulfonamide]: the IC50 on recombinant human MMP-13 is 11 nM; on recombinant human MMP-1 it was more than 10000 nM.
The corresponding values for `CCCCCc1ccc(S(=O)(=O)N(CCN2CCOCC2)[C@H](C)CS)cc1` [Example 54, N-(2-Mercapto-1R-methylethyl)-N-[2-(4-morpholino)ethyl]-4-(n-pentyl)benzenesulfonamide] are 7 nM and 9000 nM.
The corresponding values for `C[C@H](CS)N(C)S(=O)(=O)c1ccc(-c2ccccc2)cc1` [Example 55, N-(2-Mercapto-1R-methylethyl)-N-methyl-4-(phenyl)benzenesulfonamide] are 0.71 nM and 313 nM.
The corresponding values for `COc1ccc(S(=O)(=O)N(Cc2ccccc2)C(CS)Cc2ccccc2)cc1` (stereo not shown) [Example 57, N-(2-Mercapto-1R,S-phenylmethyl)-N-phenylmethyl-4-methoxybenzenesulfonamide] are 5000 nM and more than 10000 nM.
As for `COC(=O)[C@H](CSSC[C@H](NS(=O)(=O)c1ccc(OC)cc1)C(=O)OC)NS(=O)(=O)c1ccc(OC)cc1` [Example 58], the IC50 amounted to 200 nM at recombinant human MMP-13 and 6000 nM on recombinant human MMP-1.
As for `COC(=O)[C@H](CSSC[C@@H](C(=O)OC)N(C)S(=O)(=O)c1ccc(OC)cc1)N(C)S(=O)(=O)c1ccc(OC)cc1` [Example 59], the concentration for half-maximal inhibition (IC50) at recombinant human MMP-13 stood at 13 nM; on recombinant human MMP-1, 1000 nM.
Turning to `C[C@H](CS)NS(=O)(=O)c1ccc(F)cc1` [Example 63, N-(2-mercapto-1R-methylethyl)-4-fluorobenzenesulfonamide], the IC50 came to 2500 nM on recombinant human MMP-13 and 300 nM at recombinant human MMP-1.
The corresponding values for `C[C@H](CS)NS(=O)(=O)c1ccc(Br)cc1` [Example 65, N-(2-mercapto-1R-methylethyl)-4-bromobenzenesulfonamide] are 445 nM and 1000 nM.
`C[C@H](CS)NS(=O)(=O)c1ccc(OC(F)(F)F)cc1` [Example 75, N-(2-mercapto-1R-methylethyl)-4-(trifluoromethoxy)-benzenesulfonamide]: the IC50 was 1000 nM at recombinant human MMP-13 and 5000 nM at recombinant human MMP-1.
The corresponding values for `C[C@H](CS)NS(=O)(=O)c1ccc(C#N)cc1` [Example 76, N-(2-mercapto-1R-methylethyl)-4-cyanobenzenesulfonamide] are 8800 nM and 3500 nM.
For the compound `C[C@H](CS)NS(=O)(=O)c1ccccc1` [Example 82, N-(2-mercapto-1R-methylethyl)-benzenesulfonamide], the IC50 on recombinant human MMP-13 was 1200 nM; on recombinant human MMP-1 it was more than 10000 nM.
The corresponding values for `CC(=O)Nc1ccc(S(=O)(=O)N[C@H](C)CS)cc1` [Example 84, N-(2-mercapto-1R-methylethyl)-4-N-acetylsulfanilamide] are more than 10000 nM and more than 10000 nM.
The corresponding values for `C[C@H](CS)NS(=O)(=O)c1ccc(N=Nc2ccccc2)cc1` [Example 89, N-(2-mercapto-1R-methylethyl)-4-phenylazobenzenesulfonamide] are 90 nM and more than 10000 nM.
The corresponding values for `C[C@H](CS)N(CCN1CCCCC1)S(=O)(=O)c1ccc(Sc2ccccc2)cc1` [Example 92D, N-(2-Mercapto-1R-methylethyl)-N-[2-(1-piperidino)ethyl]-4-(thiophenyl)benzenesulfonamide Hydrochloride] are 0.7 nM and 6000 nM.
Turning to `NC(=O)[C@H](CS)NS(=O)(=O)c1ccc(I)cc1` [Example 95, N-(4-Iodophenyl)sulfonyl-L-cysteine-NH2], the IC50 on recombinant human MMP-13 was 20 nM; on recombinant human MMP-1 it was 800 nM.
The corresponding values for `CCCCCc1ccc(S(=O)(=O)N[C@@H](CS)C(N)=O)cc1` [Example 96, N-[4-(n-Pentyl)-phenyl]sulfonyl-L-cysteine-NH2] are 17 nM and more than 10000 nM.
In the case of `CCCCN([C@H](C)CS)S(=O)(=O)c1ccc(OC)cc1` [Example 99], the values for the IC50 at recombinant human MMP-13 and on recombinant human MMP-1 were 31.3 nM and 900 nM, respectively.
The corresponding values for `COc1ccc(S(=O)(=O)N[C@H](C)CS)cc1OC` [Example 100] are more than 10000 nM and more than 10000 nM.
The corresponding values for `C[C@H](CS)NS(=O)(=O)c1ccc(Sc2ccccc2)cc1` [Example 101] are 30 nM and more than 10000 nM.
For the compound `C[C@H](CS)N(CC(=O)O)S(=O)(=O)c1ccc(Sc2ccccc2)cc1` [Example 103], the IC50 at recombinant human MMP-13 was 17 nM; on recombinant human MMP-1, more than 10000 nM.
The corresponding values for `CCCCOc1ccc(S(=O)(=O)N(CCN2CCOCC2)[C@H](C)CS)cc1` [Example 107] are 2.7 nM and 4000 nM.
The corresponding values for `CCCCOc1ccc(S(=O)(=O)NC(CO)CS)cc1` (stereo not shown) [Example 110] are 1600 nM and more than 10000 nM.
The corresponding values for `COc1ccc(S(=O)(=O)N(Cc2ncc[nH]2)[C@H](C)CS)cc1` [Example 111] are 40 nM and 2000 nM.
Take `COc1ccc(S(=O)(=O)N(Cc2ccsc2)[C@H](C)CS)cc1` [Example 112]: the IC50 on recombinant human MMP-13 came out at 150 nM; at recombinant human MMP-1 it was 4000 nM.
As to `C[C@H](CS)N(CCN1CCOCC1)S(=O)(=O)c1ccc(Oc2ccccc2)cc1` [Example 113], the IC50 stood at 0.25 nM on recombinant human MMP-13 and 125 nM at recombinant human MMP-1.
The corresponding values for `COCCOc1ccc(S(=O)(=O)N(CCN2CCOCC2)[C@H](C)CS)cc1` [Example 114] are 45 nM and more than 10000 nM.
As for `CC(=O)SC[C@@H](C)N(CCN1CCOCC1)S(=O)(=O)c1ccc(Oc2ccc(CCC(=O)OC(C)(C)C)cc2)cc1` [Example 115], the IC50 on recombinant human MMP-13 was 220 nM; on recombinant human MMP-1, more than 10000 nM.
The corresponding values for `C[C@H](CS)N(CCN1CCOCC1)S(=O)(=O)c1ccc(Oc2ccc(CCC(=O)O)cc2)cc1` [Example 117] are 15 nM and 8000 nM.
The corresponding values for `C[C@H](CS)N(CCN1CCOCC1)S(=O)(=O)c1ccc(Oc2ccc(CCC(=O)O)cc2)cc1` [Example 118] are 14 nM and 7000 nM.
The corresponding values for `Cc1ccccc1-c1ccc(S(=O)(=O)N(C)[C@H](C)CS)cc1` [Example 122] are 4250 nM and more than 10000 nM.
For `COc1cccc(-c2ccc(S(=O)(=O)N(C)[C@H](C)CS)cc2)c1` [Example 123], the IC50 was 115 nM on recombinant human MMP-13 and more than 10000 nM on recombinant human MMP-1.
The corresponding values for `COc1ccc(-c2ccc(S(=O)(=O)N(C)[C@H](C)CS)cc2)cc1` [Example 124] are less than 0.5 nM and 2100 nM.
For `C[C@H](CS)N(C)S(=O)(=O)c1ccc(-c2cccc(C(F)(F)F)c2)cc1` [Example 125], the IC50 at recombinant human MMP-13 was 770 nM; on recombinant human MMP-1, more than 10000 nM.
The corresponding values for `CC(C)Oc1ccc(-c2ccc(S(=O)(=O)N(CCN3CCOCC3)[C@@H](CS)C(N)=O)cc2)cc1` [Example 126] are 3.5 nM and more than 100 nM.
The corresponding values for `CCCCCc1ccc(S(=O)(=O)N(CCN2CCOCC2)[C@@H](CS)C(N)=O)cc1` [Example 128] are 1.1 nM and 5000 nM.
The corresponding values for `COc1ccc(S(=O)(=O)N(C)CCc2ccccc2S)cc1` [Example 130] are 3300 nM and more than 10000 nM.
Regarding `COc1ccc(-c2ccc(S(=O)(=O)N(CCN3CCOCC3)[C@@H](CS)C(N)=O)cc2)cc1` [Example 131], the IC50 at recombinant human MMP-13 is less than 0.1 nM; at recombinant human MMP-1 it was 70 nM.
The corresponding values for `C[C@H](CSC(=O)c1cccs1)N(CCN1CCOCC1)S(=O)(=O)c1ccc(Sc2ccccc2)cc1` [Example 132] are 47 nM and more than 10000 nM.

Source of the values: patent publication US6747027B1, “Thiol sulfonamide metalloprotease inhibitors” (Pharmacia Corporation, priority 1996, dated 2004).
